Laboratory results from patent US20090324701A1, “COMPOSITIONS CONTAINING (S)-BETHANECHOL AND THEIR USE IN THE TREATMENT OF INSULIN RESISTANCE, TYPE 2 DIABETES, GLUCOSE INTOLERANCE AND RELATED DISORDERS” (DIAMEDICA, INC., priority 2006, published 2009).

What was measured:
muscarinic M1 receptors = biological target: T1, muscarinic M1 receptors (Homo sapiens, UniProt P11229); experiment: Radioligand binding muscarinic M1 binding assay; settings: for competition with [3H] N-methylscopolamine for binding to muscarinic M1 receptors: in words, refers to Table 1
T1 sequence (P11229 1-460): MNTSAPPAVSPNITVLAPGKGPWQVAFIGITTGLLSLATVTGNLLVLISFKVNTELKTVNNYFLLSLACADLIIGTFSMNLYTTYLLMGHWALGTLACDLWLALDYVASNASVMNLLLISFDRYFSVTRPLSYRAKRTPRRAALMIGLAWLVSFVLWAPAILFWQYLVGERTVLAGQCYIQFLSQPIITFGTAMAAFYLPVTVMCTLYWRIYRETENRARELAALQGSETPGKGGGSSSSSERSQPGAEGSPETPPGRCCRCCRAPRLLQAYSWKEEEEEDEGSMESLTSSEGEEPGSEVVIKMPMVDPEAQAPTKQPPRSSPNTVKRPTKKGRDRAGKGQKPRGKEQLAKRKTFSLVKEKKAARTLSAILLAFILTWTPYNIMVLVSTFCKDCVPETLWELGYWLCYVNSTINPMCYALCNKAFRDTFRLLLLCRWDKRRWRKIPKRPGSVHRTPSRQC
Description: (§1) The binding assay methodology was an adaptation of the methodology set out in Buckley N J, Bonner T I, Buckley C M and Brann M R (1989), Antagonist binding properties of five cloned muscarinic receptors expressed in CHO-K1 cells. Mol Pharmacol. 35(4): 469-476 and Luthin G R and Wolfe B B (1984), Comparison of [^3H]pirenzepine and [^3H]quinuclidinylbenzilate binding to muscarine cholinergic receptors in rat brain. J Pharmacol Exp Ther. 228(3):648-655.
(§2) The binding assay was performed under the following conditions:
(§3) Source: human recombinant CHO cells
(§4) Ligand: 0.8 nM [^3H] N-Methylscopolamine
(§5) Incubation Time/Temp: 2 hours at 25° C.
(§6) Incubation Buffer: 50 mM Tris-HCl, pH 7.4, 10 mM MgCl2, 1 mM EDTA
(§7) Non-specific Ligand: 1 μM Atropine
(§8) Quantification Method: radioligand binding Significance Criteria: ≧50% of max stimulation of inhibition

muscarinic M3 receptors = biological target: T2, muscarinic M3 receptors (Homo sapiens, UniProt P20309); experiment: Radioligand binding muscarinic M3 binding assay; settings: for competition with [3H] N-methylscopolamine for binding to muscarinic M3 receptors: in words, refers to Table 2
T2 construct: expressed in transfected cells; host or cells: CHO cells
Description: as §1, §2, §3, §4, §5, §6, §7
Bmax: 534 pmol/mg protein
as §8

[1] = tested on: rats with denervation induced HDIR; experiment: RIST, reversal of HISS dependent insulin resistance caused by anterior hepatic plexus denervation (Example 8); assay type: in vivo, male Spraque Dawely rats; settings: for % Potentiation: potentiation of denervated RIST index; for potentiation for reversing denervation induced HDIR: dose not stated (FIG. 1); for reversal of denervation induced HDIR: in words (FIG. 1)
Description: The test subjects were male Spraque Dawely rats (supplied by Charles River or The University of Manitoba) weighing between 222.0 to 375 g. The rats were separated into three test groups: For each test group, the rats were fasted for an 8 hour period and then re-fed for a 2 hour period. The rats were anesthetized with pentobarbital sodium (65 mg/kg) and were prepared surgically according to the standard animal preparation used to conduct a control RIST test (Lautt et al., 1998). After surgery the rat stabilizes for 30 minutes. Following the stabilization period and establishment of a baseline, a control RIST was carried out to show the amount of glucose needed to maintain euglycemia after a bolus administration of insulin (50 mU/kg i.v.). The animal underwent surgery to cause insulin resistance. Anterior plexus denervation and portal puncture was performed. After an hour of recovery time a post-denervation RIST was carried out. The inclusion criteria is a RIST index≧250 mg glucose/kg≦140 mg glucose/kg. For each test group, the test compound was administered at various doses μg/kg intraportal venous (0.5 mL bolus, rate of 0.05 mL/min plus 0.03 mL dead-space volume). Following administration of the test compound, a post-administration RIST was carried out and the potentiation calculated as follows: [(Reversal RIST Index−Blocked RIST Index)/Blocked RIST Index]×(100%)=% Potentiation. […] Each test group was repeated using various doses of each test compound to establish a dose-response curve. The doses were determined based upon initial findings.

[2] = tested on: rats with insulin resistance produced by hepatic denervation; experiment: RIST, insulin sensitivity in rats with insulin resistance produced by hepatic denervation (Examples 5-7); assay type: in vivo, male Spraque Dawely rats; settings: total dose into the portal vein 0.001 to 0.1 μg/kg beginning 10 minutes prior to insulin (50 mU/kg i.v.); present-tense example
Description: The test subjects are male Spraque Dawely rats. The male rat is fasted for an 8 hour period and then re-fed for a 2 hour period. The rat is anesthetized with pentobarbital sodium (65 mg/kg) and is prepared surgically according to the standard animal preparation used to conduct a RIST test (Lautt et al., 1998). After surgery the rat stabilizes for 30 minutes.
Following the stabilization period and establishment of a baseline, a control RIST is carried out to show the amount of glucose needed to maintain euglycemia after a bolus administration of insulin (50 mU/kg i.v.).
The animal undergoes surgery to cause insulin resistance. Surgical denervation of hepatic nerves reaching the liver along the hepatic artery is done. After an hour of recovery time a RIST is then carried out.
Racemic bethanechol is administered to the rat that has been surgically denervated with a total dose into the portal vein of (0.001 to 0.1) μg/kg beginning 10 minutes prior to the insulin administration.
(R)-bethanechol is administered to the rat that has been surgically denervated with a total dose into the portal vein of (0.001 to 0.1) μg/kg beginning 10 minutes prior to the insulin administration.
(S)-bethanechol is administered to the rat that has been surgically denervated with a total dose into the portal vein of (0.001 to 0.1) μg/kg beginning 10 minutes prior to the insulin administration.

[3] = tested on: hepatic glutathione (GSH); experiment: Hepatic glutathione levels in denervated rats (Bioxytech GSH420 kit); assay type: in vivo; settings: compared to animals treated with (R)-bethanechol or racemic bethanechol; present-tense example
Description: Hepatic glutathione (GSH) levels are determined for test animals from Example 8 which have a control RIST of ≧170 mg glucose/kg≦250 mg glucose mg/kg.
Following the post-denervation RIST analysis, a liver sample is taken from each test animal using cork borer #4 or #5 to remove a section of liver from the left lateral liver lobe. The top and bottom (1-2 mm) of the sample are trimmed and cut into 2 equal pieces. The samples are flash frozen on dry ice in tin foil, and are labeled with the experiment number and date. The samples are stored at −80 until GSH analysis is performed. Liver GSH levels are determined using the Bioxytech GSH420 kit.

[4] = as compared to R-bethanechol and racemic bethanechol
[5] = compound 100 μm, 0.8 nM [3H] N-Methylscopolamine, human recombinant CHO cells

T2 sequence (P20309 whole entry): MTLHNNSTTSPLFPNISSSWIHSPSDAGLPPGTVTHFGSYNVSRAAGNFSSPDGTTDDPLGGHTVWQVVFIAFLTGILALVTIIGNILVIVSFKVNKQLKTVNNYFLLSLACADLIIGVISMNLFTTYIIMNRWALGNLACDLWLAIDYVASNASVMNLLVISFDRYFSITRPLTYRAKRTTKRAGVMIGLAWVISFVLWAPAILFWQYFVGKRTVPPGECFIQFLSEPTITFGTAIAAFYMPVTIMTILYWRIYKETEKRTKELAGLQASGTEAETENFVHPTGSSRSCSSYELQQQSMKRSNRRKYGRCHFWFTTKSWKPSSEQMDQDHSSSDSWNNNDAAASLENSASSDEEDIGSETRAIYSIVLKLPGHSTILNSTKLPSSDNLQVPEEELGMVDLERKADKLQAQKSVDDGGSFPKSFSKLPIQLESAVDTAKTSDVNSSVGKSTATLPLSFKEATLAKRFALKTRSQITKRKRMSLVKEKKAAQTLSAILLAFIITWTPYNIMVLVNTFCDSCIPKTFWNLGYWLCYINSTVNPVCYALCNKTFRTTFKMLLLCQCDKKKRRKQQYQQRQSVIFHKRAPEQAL

| Structure (SMILES) | % Inhibition (muscarinic M1 receptors; [5]) [%] | % Inhibition (muscarinic M3 receptors; [5]) [%] | potentiation for reversing denervation induced HDIR [1] | reversal of denervation induced HDIR [1] | RIST index: restoration of insulin sensitivity [2] | competition with [3H] N-methylscopolamine for binding to muscarinic M1 receptors (muscarinic M1 receptors) | competition with [3H] N-methylscopolamine for binding to muscarinic M3 receptors (muscarinic M3 receptors) | other results |
| --- | --- | --- | --- | --- | --- | --- | --- | --- |
| C[C@@H](C[N+](C)(C)C)OC(N)=O.[Cl-] [(S)-bethanechol, (S)-(+)-2-Carbamyloxy-1-(N,N,N-trimethyl)-propylammonium chloride] | 31 | 42 | ca. 72% | substantial reversal | restores insulin sensitivity better than racemic bethanecol | – | – | binding affinity for muscarinic M1 receptors (muscarinic M1 receptors; [4]): significantly higher; binding affinity for muscarinic M3 receptors (muscarinic M3 receptors; [4]): significantly higher; % Potentiation ([1]; dose 0.005 μg/kg intraportal venous): −1.81%; % Potentiation ([1]; dose 0.010 μg/kg intraportal venous): −13.01%; % Potentiation ([1]; dose 0.025 μg/kg intraportal venous): 12.24%; % Potentiation ([1]; dose 0.050 μg/kg intraportal venous): 34.66%; % Potentiation ([1]; dose 0.100 μg/kg intraportal venous): 48.29%; % Potentiation ([1]; dose 0.250 μg/kg intraportal venous): 58.16%; % Potentiation ([1]; dose 0.500 μg/kg intraportal venous): 71.19%; % Potentiation ([1]; dose 0.750 μg/kg intraportal venous): 69.08%; % Potentiation ([1]; dose 2.000 μg/kg intraportal venous): 57.21%; % Potentiation ([1]; dose 5.000 μg/kg intraportal venous): 40.27%; reversal of denervation-induced HDIR over dose range ([1]; doses ranging between 0.025 to 5.000 μg/kg, 0.250 to 2.000 μg/kg greatest % potentiation): reversed denervation-induced HDIR; increases in hepatic GSH levels [3]: greater increases in hepatic GSH levels |
| C[C@H](C[N+](C)(C)C)OC(N)=O.[Cl-] [(R)-bethanechol, (R)-(−)-2-Carbamyloxy-1-(N,N,N-trimethyl)-propylammonium chloride] | 0 | −11 | – | no significant reversal | does not significantly restore insulin sensitivity | did not compete | did not compete | – |
| CC(C[N+](C)(C)C)OC(N)=O (racemic) [racemic bethanechol, bethanechol] | – | – | ca. 52% | substantial reversal | restores insulin sensitivity | did not compete | did not compete | inhibition at 100 µM (muscarinic M1 receptors; [5]): -4%; inhibition at 100 µM (muscarinic M3 receptors; [5]): -5% |
